Patent publication US12545685B2 (Daiichi Sankyo Company, Limited, priority 2011, dated 2026)

Legend:
[1] = tested on: human lung cancer-derived cell line NCI-H460 having wild-type p53; experiment: Cell growth inhibition assay (MTT); format: cell-based; details: 72 h, NCI-H460 cells, 3 days culture, values given as ranges, read-out: 50% growth inhibition concentration (GI50 value)
In short: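 NCI-H460 cells (wild-type p53) seeded at 500 cells/well in RPMI1640 with 10% FBS, then treated the next day and grown 3 days at 37 °C. MTT read-out at OD 540 nm (660 nm reference), taken at dosing and at day 3. GI50 derived from T/C (%) dose-response curves.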

[2] = biological target: T1, Mdm2/p53 binding (GST-Mdm2 / His-p53) (Homo sapiens, UniProt Q00987, L33E); experiment: Mdm2/p53 binding assay (HTRF, His-p53 and GST-Mdm2); details: His-p53 (aa 1-132) and GST-Mdm2 (aa 25-108, L33E) 6.25 nM each; 25°C, 1 hour; values given as ranges
T1 construct: Mdm2 partial protein having Mdm2 amino acids at positions 25 to 108
In short: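 Binding was detected by HTRF (ex 320 nm, em 620/665 nm) after 1 h at 25 °C, using Eu-cryptate anti-GST and XL665 anti-His antibodies. The protein pair was GST-Mdm2 (residues 25–108, L33E) with His-p53 (residues 1–132), each 6.25 nM in the protein dilution. T/C used no-compound control and no-p53 background, and IC50 came from sigmoid fitting.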

T1 sequence (Q00987 25-108 L33E): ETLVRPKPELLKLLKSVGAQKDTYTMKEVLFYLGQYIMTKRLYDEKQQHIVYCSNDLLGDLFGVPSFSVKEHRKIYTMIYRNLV

GI50 [1] [nM] | IC50 [2] [nM] | SMILES
100 to 500 | 50 to 100 | CC1(C)CCC2(CC1)N[C@@H](C(=O)N[C@H]1CC[C@H](c3n[nH]c(=O)o3)CC1)[C@H](c1ccnc(Cl)c1)[C@]21C(=O)Nc2cc(Cl)ccc21 [Example 51, (3′R, 4′R, 5′R)-6″-chloro-4′=(2-chloropyridin-4-yl)-4,4-dimethyl-2″-oxo-N-[trans-4-(5-oxo-4,5-dihydro-1,3,4-oxadiazol-2-yl)cyclohexyl]-1″,2″-dihydrodispiro[cyclohexane-1,2′-pyrrolidine-3′,3″-indole]-5′-carboxamide]
500 to 1000 | 1 to 50 | CC1(C)CCC2(CC1)N[C@@H](C(=O)N[C@@H]1CC[C@@H](c3nnco3)OC1)[C@H](c1ccnc(Cl)c1)[C@]21C(=O)Nc2cc(Cl)ccc21 [Example 53, (3′R, 4′R, 5′R)-6″-chloro-4′-(2-chloropyridin-4-yl)-4,4-dimethyl-N-[(3R,6S)-6-(1,3,4-oxadiazol-2-yl)tetrahydro-2-pyran-3-yl]-2″-oxo-1″,2″-dihydrodispiro[cyclohexane-1,2′-pyrrolidine-3′,3″-indole]-5′-carboxamide]
500 to 1000 | 50 to 100 | CC1(C)CCC2(CC1)N[C@@H](C(=O)N[C@H]1CC[C@H](c3nnco3)CC1)[C@H](c1ccnc(Cl)c1)[C@]21C(=O)Nc2cc(Cl)ccc21 [Example 54, (3′R, 4′R, 5′R)-6″-chloro-4′-(2-chloropyridin-4-yl)-4,4-dimethyl-N-[trans-4-(1,3,4-oxadiazol-2-yl)cyclohexyl]-2″-oxo-1″,2″-dihydrodispiro[cyclohexane-1,2′-pyrrolidine-3′,3″-indole]-5′-carboxamide]
100 to 500 | 1 to 50 | CC1(C)CCC2(CC1)N[C@@H](C(=O)N[C@@H]1CC[C@@H](c3n[nH]c(=O)o3)OC1)[C@H](c1ccnc(Cl)c1F)[C@]21C(=O)Nc2cc(Cl)ccc21 [Example 57, (3′R, 4′S,5′R)-6″-chloro-4′-(2-chloro-3-fluoropyridin-4-yl)-4,4-dimethyl-2″-oxo-N-[(3R,6S)-6-(5-oxo-4,5-dihydro-1,3,4-oxadiazol-2-yl)tetrahydro-2H-pyran-3-yl]-1″,2″-dihydrodispiro[cyclohexane-1,2′-pyrrolidine-3′,3″-indole]-5′-carboxamide]
100 to 500 | 1 to 50 | CC1(C)CCC2(CC1)N[C@@H](C(=O)N[C@H]1CC[C@H](C(N)=O)CC1)[C@H](c1ccnc(Cl)c1F)[C@]21C(=O)Nc2cc(Cl)ccc21 [Example 67, (3′R, 4′S,5′R)—N-(trans-4-carbamoylcyclohexyl)-6″-chloro-4′-(2-chloro-3-fluoropyridin-4-yl)-4,4-dimethyl-2′-oxo-1″,2″-dihydrodispiro[cyclohexane-1,2′-pyrrolidine-3′,3″-indole]-5′-carboxamide]
100 to 500 | 1 to 50 | CO[C@@H]1C[C@@H](NC(=O)[C@@H]2NC3(CCC(C)(C)CC3)[C@@]3(C(=O)Nc4cc(Cl)ccc43)[C@H]2c2ccnc(Cl)c2F)CO[C@@H]1CO [Example 69, (3′R, 4′S,5′R)-6″-chloro-4′-(2-chloro-3-fluoropyridin-4-yl)-N-((3R,5R,6R)-6-(hydroxymethyl)-5-methoxytetrahydro-2H-pyran-3-yl)-4,4-dimethyl-2″-oxo-1″,2″-dihydrodispiro[cyclohexane-1,2′-pyrrolidine-3′,3″-indole]-5′-carboxamide]
100 to 500 | 50 to 100 | CCNC(=O)[C@@H]1CC[C@@H](NC(=O)[C@@H]2NC3(CCC(C)(C)CC3)[C@@]3(C(=O)Nc4cc(Cl)ccc43)[C@H]2c2ccnc(Cl)c2F)CO1 [Example 88, (3′R, 4′S,5′R)-6″-chloro-4′-(2-chloro-3-fluoropyridin-4-yl)-N-[(3R,6S)-6-(ethylcarbamoyl)tetrahydro-2H-pyran-3-yl]-4,4-dimethyl-2″-oxo-1″,2″-dihydrodispiro[cyclohexane-1,2′-pyrrolidine-3′,3″-indole]-5′-carboxamide]
100 to 500 | 50 to 100 | CC(C)NC(=O)[C@@H]1CC[C@@H](NC(=O)[C@@H]2NC3(CCC(C)(C)CC3)[C@@]3(C(=O)Nc4cc(Cl)ccc43)[C@H]2c2ccnc(Cl)c2F)CO1 [Example 96, (3′R, 4′S,5′R)-6″-chloro-4′-(2-chloro-3-fluoropyridin-4-yl)-N-[(3R,6S)-6-(isopropylcarbamoyl)tetrahydro-2H-pyran-3-yl]-4,4-dimethyl-2′-oxo-1″,2″-dihydrodispiro[cyclohexane-1,2′-pyrrolidine-3′,3″-indole]-5′-carboxamide]
100 to 500 | 1 to 50 | CC1(C)CCC2(CC1)N[C@@H](C(=O)N[C@@H]1CC[C@@H](C(=O)NC3CC3)OC1)[C@H](c1ccnc(Cl)c1F)[C@]21C(=O)Nc2cc(Cl)ccc21 [Example 97, (3′R, 4′S,5′R)-6″-chloro-4′-(2-chloro-3-fluoropyridin-4-yl)-N-[(3R,6S)-6-(cyclopropylcarbamoyl)tetrahydro-2H-pyran-3-yl]-4,4-dimethyl-2″-oxo-1″,2″-dihydrodispiro[cyclohexane-1,2′-pyrrolidine-3′,3″-indole]-5′-carboxamide]
< 100 | 1 to 50 | CNC(=O)[C@@H]1CC[C@@H](NC(=O)[C@@H]2NC3(CCC(C)(C)CC3)[C@@]3(C(=O)Nc4cc(Cl)ccc43)[C@H]2c2ccnc(Cl)c2F)CO1 [Example 99, (3′R, 4′S,5′R)-6″-chloro-4′-(2-chloro-3-fluoropyridin-4-yl)-N-[(3R,6S)-6-(methylcarbamoyl)tetrahydro-2H-pyran-3-yl]-4,4-dimethyl-2″-oxo-1″,2″-dihydrodispiro[cyclohexane-1,2′-pyrrolidine-3′,3″-indole]-5′-carboxamide]
< 100 | 1 to 50 | CN(C)C(=O)[C@@H]1CC[C@@H](NC(=O)[C@@H]2NC3(CCC(C)(C)CC3)[C@@]3(C(=O)Nc4cc(Cl)ccc43)[C@H]2c2ccnc(Cl)c2F)CO1 [Example 100, (3′R, 4′S,5′R)-6″-chloro-4′-(2-chloro-3-fluoropyridin-4-yl)-N-[(3R,6S)-6-(dimethylcarbamoyl)tetrahydro-2H-pyran-3-yl]-4,4-dimethyl-2″-oxo-1″,2″-dihydrodispiro[cyclohexane-1,2′-pyrrolidine-3′,3′″-indole]-5′-carboxamide]
100 to 500 | 1 to 50 | CC1(C)CCC2(CC1)N[C@@H](C(=O)N[C@@H]1CC[C@@H](C(=O)N3CC(O)C3)OC1)[C@H](c1ccnc(Cl)c1F)[C@]21C(=O)Nc2cc(Cl)ccc21 [Example 107, (3′R, 4′S,5′R)-6″-chloro-4′-(2-chloro-3-fluoropyridin-4-yl)-N-{(3R,6S)-6-[(3-hydroxyazetidin-1-yl)carbonyl]tetrahydro-2H-pyran-3-yl}-4,4-dimethyl-2″-oxo-1″,2″-dihydrodispiro[cyclohexane-1,2′-pyrrolidine-3′,3″-indole]-5′-carboxamide]
100 to 500 | 1 to 50 | CC1(C)CCC2(CC1)N[C@@H](C(=O)N[C@@H]1CC[C@@H](C(=O)NC3CCOCC3)OC1)[C@H](c1ccnc(Cl)c1F)[C@]21C(=O)Nc2cc(Cl)ccc21 [Example 109, (3′R, 4′S,5′R)-6″-chloro-4′-(2-chloro-3-fluoropyridin-4-yl)-4,4-dimethyl-2″-Oxo-N-[(3R,6S)-6-(tetrahydro-2H-pyran-4-ylcarbamoyl)tetrahydro-2H-pyran-3-yl]-1″,2″-dihydrodispiro[cyclohexane-1,2′-pyrrolidine-3′,3″-indole]-5′-carboxamide]
< 100 | 1 to 50 | CC1(C)CCC2(CC1)N[C@@H](C(=O)N[C@@H]1CC[C@@H](C(=O)N3CCOCC3)OC1)[C@H](c1ccnc(Cl)c1F)[C@]21C(=O)Nc2cc(Cl)ccc21 [Example 110, (3′R, 4′S,5′R)-6″-chloro-4′-(2-chloro-3-fluoropyridin-4-yl)-4,4-dimethyl-N-[(3R,6S)-6-(morpholin-4-ylcarbonyl)tetrahydro-2H-pyran-3-yl]-2″-oxo-1″,2″-dihydrodispiro[cyclohexane-1,2′-pyrrolidine-3′,3″-indole]-5′-carboxamide]
100 to 500 | 1 to 50 | CC1(C)CCC2(CC1)N[C@@H](C(=O)N[C@@H]1CC[C@@H](CC(N)=O)OC1)[C@H](c1ccnc(Cl)c1F)[C@]21C(=O)Nc2cc(Cl)ccc21 [Example 111, (3′R, 4′S,5′R)—N-[(3R,6S)-6-(2-amino-2-oxoethyl)tetrahydro-2H-pyran-3-yl]-6″-chloro-4′-(2-chloro-3-fluoropyridin-4-yl)-4,4-dimethyl-2″-oxo-1″,20-dihydrodispiro[cyclohexane-1,2′-pyrrolidine-3′,3″-indole]-5′-carboxamide]
100 to 500 | 50 to 100 | CC1(C)CCC2(CC1)N[C@@H](C(=O)N[C@H]1C[C@H](c3nnco3)C1)[C@H](c1ccnc(Cl)c1F)[C@]21C(=O)Nc2cc(Cl)ccc21 [Example 112, (3′R, 4′S, S′R)-6″-chloro-4′-(2-chloro-3-fluoropyridin-4-yl)-4,4-dimethyl-N-[trans-3-(1,3,4-oxadiazol-2-yl)cyclobutyl]-2″-oxo-1″,2″-dihydrodispiro[cyclohexane-1,2′-pyrrolidine-3′,3″-indole]-5-carboxamide]
